# Test results: patent US20100298141A1, “SUBSTITUTED PYRIDINE N-OXIDE HERBICIDES” (E. I. DU PONT DE NEMOURS AND COMPANY, priority 2007, published 2010)
# What was measured:
# [1] = tested on: common ragweed; assay: Test C pre-/postemergence test; format: in vivo, Ambrosia elation; conditions: Preemergence; for Ragweed plant response rating: 62 g ai/ha, scale 0 to 100; for Plant response rating, Ragweed: 31 g ai/ha, scale 0 to 100 (0 no effect, 100 complete control)
# Summary of the method: (§1)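 Seeds were planted and treated preemergence with test chemical in a non-phytotoxic solvent mixture containing surfactant. Postemergence applications of the same formulation went onto plants 2 to 18 cm tall (1- to 4-leaf stage). A dash marks no test result.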
# [2] = tested on: Surinam grass; assay: Test C pre-/postemergence test; format: in vivo, Brachiaria decumbens; conditions: Preemergence; for Surinam Grass plant response rating: 62 g ai/ha, scale 0 to 100; for Plant response rating, Surinam Grass: 31 g ai/ha, scale 0 to 100 (0 no effect, 100 complete control)
# Summary of the method: as §1
# [3] = tested on: redroot pigweed; assay: Test A pre-/postemergence greenhouse test; format: in vivo, Amaranthus retroflexus; conditions: for Pigweed plant response rating: 0 to 100 scale; for Plant response rating, Pigweed: 0 to 100 scale where 0 is no effect and 100 is complete control
# Summary of the method: (§2)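 Pots of loam–sand soil sown with the test species are sprayed preemergence on the soil surface; emerged seedlings (1–2 leaves, 2–10 cm) are sprayed postemergence at the same time. The vehicle is a non-phytotoxic solvent mixture with surfactant. Injury is scored visually after ~10 d in greenhouse.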
# [4] = tested on: lambsquarters; assay: Test C pre-/postemergence test; format: in vivo, Chenopodium album; conditions: Preemergence; for Lambsquarters plant response rating: 62 g ai/ha, scale 0 to 100; for Plant response rating, Lambsquarters: 31 g ai/ha, scale 0 to 100 (0 no effect, 100 complete control)
# Summary of the method: as §1
# [5] = tested on: cocklebur; assay: Test C pre-/postemergence test; format: in vivo, Xanthium strumarium; conditions: for Plant response rating, Cocklebur: 31 g ai/ha, scale 0 to 100 (0 no effect, 100 complete control)
# Summary of the method: as §1
# [6] = tested on: velvetleaf; assay: Test A pre-/postemergence greenhouse test; format: in vivo, Abutilon theophrasti; conditions: for Velvetleaf plant response rating: 0 to 100 scale; for Plant response rating, Velvetleaf: 0 to 100 scale where 0 is no effect and 100 is complete control
# Summary of the method: as §2
# [7] = tested on: downy brome; assay: Test C pre-/postemergence test; format: in vivo, Bromus tectorum; conditions: for Plant response rating, Bromegrass, Downy: 31 g ai/ha, scale 0 to 100 (0 no effect, 100 complete control); for Plant response rating (0 to 100), Bromegrass, Downy: 250 g ai/ha
# Summary of the method: as §1
# [8] = tested on: wild oat; assay: Test C pre-/postemergence test; format: in vivo, Avena fatua; conditions: Preemergence; for Oat, Wild plant response rating: 62 g ai/ha, scale 0 to 100; for Plant response rating, Oat, Wild: 31 g ai/ha, scale 0 to 100 (0 no effect, 100 complete control)
# Summary of the method: as §1
# [9] = tested on: velvetleaf; assay: Test C pre-/postemergence test; format: in vivo, Abutilon theophrasti; conditions: Preemergence; for Velvetleaf plant response rating: 62 g ai/ha, scale 0 to 100; for Plant response rating, Velvetleaf: 31 g ai/ha, scale 0 to 100 (0 no effect, 100 complete control)
# Summary of the method: as §1
# [10] = tested on: green foxtail; assay: Test C pre-/postemergence test; format: in vivo, Setaria viridis; conditions: Preemergence; for Foxtail, Green plant response rating: 62 g ai/ha, scale 0 to 100; for Plant response rating, Foxtail, Green: 31 g ai/ha, scale 0 to 100 (0 no effect, 100 complete control); for Plant response rating (0 to 100), Foxtail, Green: 250 g ai/ha
# Summary of the method: as §1
# [11] = tested on: crabgrass; assay: Test C pre-/postemergence test; format: in vivo, Digitaria sanguinalis; conditions: Preemergence; for Crabgrass, Large plant response rating: 62 g ai/ha, scale 0 to 100; for Plant response rating, Crabgrass, Large: 31 g ai/ha, scale 0 to 100 (0 no effect, 100 complete control); for Plant response rating (0 to 100), Crabgrass, Large: 250 g ai/ha
# Summary of the method: as §1
# [12] = tested on: kochia; assay: Test C pre-/postemergence test; format: in vivo, Kochia scoparia; conditions: Preemergence; for Kochia plant response rating: 62 g ai/ha, scale 0 to 100; for Plant response rating, Kochia: 31 g ai/ha, scale 0 to 100 (0 no effect, 100 complete control)
# Summary of the method: as §1
# [13] = tested on: rice; assay: Test C flooded paddy test; format: in vivo, Oryza sativa; conditions: Flood
# Summary of the method: (§3)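 In-water treatment: compound dosed into 3 cm flood over soil, water level unchanged throughout. Controls run alongside; visual assessment at day 13–15.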
# [14] = tested on: duck salad; assay: Test C flooded paddy test; format: in vivo, Heteranthera limosa; conditions: Flood
# Summary of the method: as §3
# [15] = tested on: johnsongrass; assay: Test C pre-/postemergence test; format: in vivo, Sorghum halepense; conditions: Preemergence; for Johnsongrass plant response rating: 62 g ai/ha, scale 0 to 100; for Plant response rating (0 to 100), Johnsongrass: 250 g ai/ha
# Summary of the method: as §1
# [16] = tested on: eastern black nightshade; assay: Test C pre-/postemergence test; format: in vivo, Solanum ptycanthum; conditions: Preemergence; for Nightshade plant response rating: 62 g ai/ha, scale 0 to 100; for Plant response rating, Nightshade: 31 g ai/ha, scale 0 to 100 (0 no effect, 100 complete control)
# Summary of the method: as §1
# [17] = tested on: giant foxtail; assay: Test C pre-/postemergence test; format: in vivo, Setaria faberii; conditions: Preemergence; for Foxtail, Giant plant response rating: 62 g ai/ha, scale 0 to 100; for Plant response rating, Foxtail, Giant: 31 g ai/ha, scale 0 to 100 (0 no effect, 100 complete control); for Plant response rating (0 to 100), Foxtail, Giant: 250 g ai/ha
# Summary of the method: as §1
# [18] = tested on: barnyardgrass; assay: Test A pre-/postemergence greenhouse test; format: in vivo, Echinochloa crus-galli; conditions: for Barnyardgrass plant response rating: 0 to 100 scale; for Plant response rating, Barnyardgrass: 0 to 100 scale where 0 is no effect and 100 is complete control
# Summary of the method: as §2
# [19] = Postemergence, 125 g ai/ha, 0 is no effect, 100 is complete control
# [20] = Postemergence, 500 g ai/ha, 0 is no effect, 100 is complete control
# [21] = Preemergence, 125 g ai/ha, 0 no effect, 100 complete control
# [22] = 62 g ai/ha, Preemergence, scale 0 to 100
# [23] = preemergence, 125 g ai/ha, scale 0 (no effect) to 100 (complete control)
# [24] = 31 g ai/ha, scale 0 to 100 (0 no effect, 100 complete control)
# [25] = 62 g ai/ha, scale 0 to 100, 0 no effect, 100 complete control, 13 to 15 days
# [26] = 125 g ai/ha, scale 0 to 100, 0 no effect, 100 complete control, 13 to 15 days
# [27] = 250 g ai/ha, scale 0 to 100 (0 no effect, 100 complete control)
structure (smiles),measurement,setting,value
Cc1cc[n+]([O-])c(S(=O)(=O)C(Cl)c2c(C(F)(F)F)nn(C)c2Cl)c1 (racemic) [Compound 22],Ragweed plant response rating,[1],80
same,"Plant response rating, Ragweed",[1],0
same,Surinam Grass plant response rating,[2],60
same,"Plant response rating, Surinam Grass",[2],10
same,Pigweed plant response rating,[3]; [19],10
same,Pigweed plant response rating,[3]; [20],50
same,Pigweed plant response rating,[3]; [21],100
same,"Plant response rating, Pigweed","[3]; Preemergence, 500 g ai/ha",100
same,Lambsquarters plant response rating,[4],100
same,"Plant response rating, Lambsquarters",[4],0
same,Cocklebur plant response rating,[5]; [22],0
same,"Plant response rating, Cocklebur",[5]; Preemergence,0
same,"Plant response rating (0 to 100), Cocklebur","[5]; Preemergence, 250 g ai/ha",0
same,Cocklebur plant response rating,[5]; [23],0
same,Velvetleaf plant response rating,[6]; [19],0
same,Velvetleaf plant response rating,[6]; [20],40
same,Velvetleaf plant response rating,[6]; [21],10
same,"Plant response rating, Velvetleaf","[6]; Preemergence, 500 g ai/ha",60
same,"Bromegrass, Downy plant response rating",[7]; [22],0
same,"Plant response rating, Bromegrass, Downy",[7]; Preemergence,0
same,"Plant response rating (0 to 100), Bromegrass, Downy",[7]; Preemergence,0
same,"Bromegrass, Downy plant response rating",[7]; [23],0
same,"Oat, Wild plant response rating",[8],45
same,"Plant response rating, Oat, Wild",[8],0
same,Velvetleaf plant response rating,[9],0
same,"Plant response rating, Velvetleaf",[9],0
same,"Foxtail, Green plant response rating",[10],100
same,"Plant response rating, Foxtail, Green",[10],100
same,"Plant response rating (0 to 100), Foxtail, Green",[10],100
same,"Crabgrass, Large plant response rating",[11],100
same,"Plant response rating, Crabgrass, Large",[11],98
same,"Plant response rating (0 to 100), Crabgrass, Large",[11],100
same,Kochia plant response rating,[12],0
same,"Plant response rating, Kochia",[12],0
same,"Plant response rating, Rice",[13]; [24],0
same,"Plant response rating, Rice",[13]; [25],30
same,"Plant response rating, Rice",[13]; [26],80
same,"Plant response rating, Rice",[13]; [27],80
same,"Plant response rating, Ducksalad",[14]; [24],20
same,"Plant response rating, Ducksalad",[14]; [25],80
same,"Plant response rating, Ducksalad",[14]; [26],85
same,"Plant response rating, Ducksalad",[14]; [27],90
same,Johnsongrass plant response rating,[15],10
same,"Plant response rating (0 to 100), Johnsongrass",[15],70
same,Nightshade plant response rating,[16],85
same,"Plant response rating, Nightshade",[16],0
same,"Foxtail, Giant plant response rating",[17],80
same,"Plant response rating, Foxtail, Giant",[17],80
same,"Plant response rating (0 to 100), Foxtail, Giant",[17],100
same,Barnyardgrass plant response rating,[18]; [19],40
same,Barnyardgrass plant response rating,[18]; [20],80
same,Barnyardgrass plant response rating,[18]; [21],90
same,"Plant response rating, Barnyardgrass","[18]; Preemergence, 500 g ai/ha",100
Cn1nc(C(F)(F)F)c(C[S+]([O-])c2cc(C(C)(C)C)cc[n+]2[O-])c1OC(F)F (racemic) [Compound 24],Ragweed plant response rating,[1],70
same,"Plant response rating, Ragweed",[1],0
same,Surinam Grass plant response rating,[2],40
same,"Plant response rating, Surinam Grass",[2],20
same,Pigweed plant response rating,[3]; [19],20
same,Pigweed plant response rating,[3]; [20],50
same,Pigweed plant response rating,[3]; [21],100
same,"Plant response rating, Pigweed","[3]; Preemergence, 500 g ai/ha",100
same,Lambsquarters plant response rating,[4],100
same,"Plant response rating, Lambsquarters",[4],85
same,Cocklebur plant response rating,[5]; [22],0
same,"Plant response rating, Cocklebur",[5]; Preemergence,0
same,Cocklebur plant response rating,[5]; [23],0
same,Velvetleaf plant response rating,[6]; [19],40
same,Velvetleaf plant response rating,[6]; [20],60
same,Velvetleaf plant response rating,[6]; [21],70
same,"Plant response rating, Velvetleaf","[6]; Preemergence, 500 g ai/ha",100
same,"Bromegrass, Downy plant response rating",[7]; [22],50
same,"Plant response rating, Bromegrass, Downy",[7]; Preemergence,10
same,"Plant response rating (0 to 100), Bromegrass, Downy",[7]; Preemergence,65
same,"Bromegrass, Downy plant response rating",[7]; [23],50
same,"Oat, Wild plant response rating",[8],80
same,"Plant response rating, Oat, Wild",[8],50
same,Velvetleaf plant response rating,[9],100
same,"Plant response rating, Velvetleaf",[9],55
same,"Foxtail, Green plant response rating",[10],70
same,"Plant response rating, Foxtail, Green",[10],10
same,"Plant response rating (0 to 100), Foxtail, Green",[10],100
same,"Crabgrass, Large plant response rating",[11],100
same,"Plant response rating, Crabgrass, Large",[11],100
same,"Plant response rating (0 to 100), Crabgrass, Large",[11],100
same,Kochia plant response rating,[12],5
same,"Plant response rating, Kochia",[12],0
same,"Plant response rating, Rice",[13]; [24],0
same,"Plant response rating, Rice",[13]; [25],30
same,"Plant response rating, Rice",[13]; [26],45
same,"Plant response rating, Rice",[13]; [27],80
same,"Plant response rating, Ducksalad",[14]; [24],0
same,"Plant response rating, Ducksalad",[14]; [25],60
same,"Plant response rating, Ducksalad",[14]; [26],80
same,"Plant response rating, Ducksalad",[14]; [27],85
same,Johnsongrass plant response rating,[15],90
same,"Plant response rating, Johnsongrass",[15]; [24],50
same,"Plant response rating (0 to 100), Johnsongrass",[15],100
same,Nightshade plant response rating,[16],100
same,"Plant response rating, Nightshade",[16],100
same,"Foxtail, Giant plant response rating",[17],90
same,"Plant response rating, Foxtail, Giant",[17],70
same,"Plant response rating (0 to 100), Foxtail, Giant",[17],100
same,Barnyardgrass plant response rating,[18]; [19],30
same,Barnyardgrass plant response rating,[18]; [20],50
same,Barnyardgrass plant response rating,[18]; [21],60
same,"Plant response rating, Barnyardgrass","[18]; Preemergence, 500 g ai/ha",100
